# Reference: patent US8952024B2, “Herbicidal pyrimidone derivatives” (E I du Pont de Nemours and Company, priority 2009, dated 2015)
# Experiments:
# Assay type in all cases: in vivo
# [1] = tested on: barnyardgrass (Echinochloa crus-galli); assay: Test A pre-/postemergence plant response
# Summary of the method: (§1)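 Pre: directed soil spray on seeded loam/sand blend. Post: same formulation (non-phytotoxic solvent + surfactant) on 2–10 cm plants, 1–2 leaf stage. Greenhouse ~10 d; visual injury score 0–100 vs untreated.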
# [2] = tested on: pigweed (Amaranthus retroflexus); assay: Test A pre-/postemergence plant response
# Summary of the method: as §1
# [3] = tested on: Italian ryegrass (Lolium multiflorum); assay: Test B pre-/postemergence plant response
# Summary of the method: (§2)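 Visual injury, 0–100 scale (100 = complete control), rated against controls after 13 to 15 days in greenhouse. Pre-emergence: seeds in loam/sand soil, treated at planting. Post-emergence: 1- to 4-leaf plants (2 to 18 cm) in peat/vermiculite medium. Compounds formulated in non-phytotoxic solvent with surfactant.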
# [4] = tested on: Surinam grass (Brachiaria decumbens); assay: Test B pre-/postemergence plant response
# Summary of the method: as §2
# [5] = tested on: blackgrass (Alopecurus myosuroides); assay: Test B pre-/postemergence plant response
# Summary of the method: as §2
# [6] = tested on: downy bromegrass (Bromus tectorum); assay: Test B pre-/postemergence plant response
# Summary of the method: as §2
# [7] = tested on: goosegrass (Eleusine indica); assay: Test B pre-/postemergence plant response
# Summary of the method: as §2
# [8] = tested on: large crabgrass (Digitaria sanguinalis); assay: Test B pre-/postemergence plant response
# Summary of the method: as §2
# [9] = tested on: morningglory (Ipomoea coccinea); assay: Test B pre-/postemergence plant response
# Summary of the method: as §2
# [10] = tested on: velvetleaf (Abutilon theophrasti); assay: Test B pre-/postemergence plant response
# Summary of the method: as §2
# [11] = tested on: wheat (Triticum aestivum); assay: Test B pre-/postemergence plant response
# Summary of the method: as §2
# [12] = tested on: woolly cupgrass (Eriochloa villosa); assay: Test B pre-/postemergence plant response
# Summary of the method: as §2
# [13] = tested on: yellow nutsedge (Cyperus esculentus); assay: Test B pre-/postemergence plant response
# Summary of the method: as §2
# [14] = Postemergence, 125 g ai/ha, 0 to 100 scale where 0 is no effect and 100 is complete control
# [15] = Postemergence, 500 g ai/ha, 0 to 100 scale, 0 = no effect, 100 = complete control, approx. ten days
# [16] = Preemergence, 125 g ai/ha, 0 to 100 scale, 0 = no effect, 100 = complete control
# [17] = Preemergence, 500 g ai/ha, visual injury, 0 to 100 scale (0 no effect, 100 complete control), approx. ten days
# [18] = 62 g ai/ha, postemergence, 0 is no effect, 100 is complete control, 13 to 15 days
# [19] = Postemergence, 125 g ai/ha, scale 0 to 100 (0 no effect, 100 complete control)
# [20] = Postemergence, 250 g ai/ha, scale 0 to 100 (0 no effect, 100 complete control)
# [21] = 31 g ai/ha, postemergence, scale 0 to 100, 0 is no effect, 100 is complete control
# [22] = Postemergence, 125 g ai/ha, visual injury, 0 to 100 scale (0 no effect, 100 complete control), approx. ten days
# [23] = 250 g ai/ha, Preemergence, 0 to 100 scale
# [24] = Postemergence, 62 g ai/ha, scale 0 (no effect) to 100 (complete control), 13 to 15 days
# [25] = Postemergence, 125 g ai/ha, visual rating after 13 to 15 days, scale 0 (no effect) to 100 (complete control)
# [26] = Preemergence, 31 g ai/ha, scale 0 to 100 (0 no effect, 100 complete control)
# [27] = Preemergence, 62 g ai/ha, scale 0 to 100, 0 no effect, 100 complete control
# [28] = Preemergence, 125 g ai/ha, scale 0 to 100, 0 no effect, 100 complete control
compound,measurement,setting,value
O=C1CCCC(O)=C1C(=O)c1cnc(-c2ccsc2)n(CC2CCCO2)c1=O (stereo not drawn) [Compound 98],"Plant response rating, Barnyardgrass",[1]; [14],80
same,"Plant response rating, Barnyardgrass",[1]; [15],90
same,"Plant response rating, Barnyardgrass",[1]; [16],0
same,"Plant response rating, Barnyardgrass",[1]; [17],60
same,"Plant response rating, Pigweed",[2]; [14],100
same,"Plant response rating, Pigweed",[2]; [15],100
same,"Plant response rating, Pigweed",[2]; [16],100
same,"Plant response rating, Pigweed",[2]; [17],100
same,"Ryegrass, Italian plant response rating (0 to 100 scale)",[3]; [18],5
same,"Plant response rating, Ryegrass, Italian",[3]; [19],15
same,"Plant response rating, Ryegrass, Italian",[3]; [20],15
same,Surinam Grass plant response rating (0 to 100 scale),[4]; [18],75
same,"Plant response rating, Surinam Grass",[4]; [19],85
same,"Plant response rating, Surinam Grass",[4]; [20],90
same,"Plant response rating, Blackgrass",[5]; [21],0
same,Blackgrass plant response rating (0 to 100 scale),[5]; [18],5
same,"Plant response rating, Blackgrass",[5]; [19],20
same,"Plant response rating, Blackgrass",[5]; [20],50
same,"Plant response rating, Bromegrass, Downy",[6]; [21],5
same,"Bromegrass, Downy plant response rating (0 to 100 scale)",[6]; [18],5
same,"Plant response rating, Bromegrass, Downy",[6]; [19],5
same,"Plant response rating, Bromegrass, Downy",[6]; [20],40
same,"Plant response rating, Goosegrass",[7]; [21],60
same,Goosegrass plant response rating (0 to 100 scale),[7]; [18],75
same,"Plant response rating, Goosegrass",[7]; [19],80
same,"Plant response rating, Goosegrass",[7]; [20],90
same,"Plant response rating, Crabgrass, Large",[8]; [21],75
same,"Crabgrass, Large plant response rating (0 to 100 scale)",[8]; [18],75
same,"Plant response rating, Crabgrass, Large",[8]; [19],80
same,"Plant response rating, Crabgrass, Large",[8]; [20],95
same,"Plant response rating, Morningglory",[9]; [21],70
same,Morningglory plant response rating (0 to 100 scale),[9]; [18],85
same,"Plant response rating, Morningglory",[9]; [19],100
same,"Plant response rating, Morningglory",[9]; [20],100
same,Velvetleaf plant response rating (0 to 100 scale),[10]; [18],95
same,"Plant response rating, Velvetleaf",[10]; [19],95
same,"Plant response rating, Velvetleaf",[10]; [20],98
same,Wheat plant response rating (0 to 100 scale),[11]; [18],5
same,"Plant response rating, Wheat",[11]; [19],5
same,"Plant response rating, Wheat",[11]; [20],20
same,"Plant response rating, Cupgrass, Woolly",[12]; [21],65
same,"Cupgrass, Woolly plant response rating (0 to 100 scale)",[12]; [18],70
same,"Plant response rating, Cupgrass, Woolly",[12]; [19],75
same,"Plant response rating, Cupgrass, Woolly",[12]; [20],95
same,"Plant response rating, Nutsedge, Yellow",[13]; [21],50
same,"Nutsedge, Yellow plant response rating (0 to 100 scale)",[13]; [18],60
same,"Plant response rating, Nutsedge, Yellow",[13]; [19],70
same,"Plant response rating, Nutsedge, Yellow",[13]; [20],75
Cc1ccc(Cl)cc1-n1c(-c2ccccc2)ncc(C(=O)C2=C(O)CCCC2=O)c1=O [Compound 52],Barnyardgrass plant response rating,[1]; [22],90
same,"Plant response rating, Barnyardgrass",[1]; [15],90
same,"Plant response rating, Barnyardgrass",[1]; [16],40
same,"Plant response rating, Barnyardgrass",[1]; [17],100
same,Pigweed plant response rating,[2]; [22],90
same,"Plant response rating, Pigweed",[2]; [15],100
same,"Plant response rating, Pigweed",[2]; [16],100
same,"Plant response rating, Pigweed",[2]; [17],100
same,"Plant response rating, Ryegrass, Italian",[3]; [21],40
same,"Plant response rating, Ryegrass, Italian",[3]; [23],0
same,"Plant response rating, Ryegrass, Italian",[3]; [24],45
same,"Plant response rating, Ryegrass, Italian",[3]; [25],55
same,"Plant response rating, Ryegrass, Italian",[3]; [20],60
same,"Plant response rating, Ryegrass, Italian",[3]; [26],0
same,"Plant response rating, Ryegrass, Italian",[3]; [27],0
same,"Plant response rating, Ryegrass, Italian",[3]; [28],0
same,"Plant response rating, Surinam Grass",[4]; [21],75
same,"Plant response rating, Surinam Grass",[4]; [23],98
same,"Plant response rating, Surinam Grass",[4]; [24],85
same,"Plant response rating, Surinam Grass",[4]; [25],90
same,"Plant response rating, Surinam Grass",[4]; [20],98
same,"Plant response rating, Surinam Grass",[4]; [26],10
same,"Plant response rating, Surinam Grass",[4]; [27],25
same,"Plant response rating, Surinam Grass",[4]; [28],95
same,"Plant response rating, Blackgrass",[5]; [21],5
same,"Plant response rating, Blackgrass",[5]; [23],10
same,"Plant response rating, Blackgrass",[5]; [24],5
same,"Plant response rating, Blackgrass",[5]; [25],25
same,"Plant response rating, Blackgrass",[5]; [20],30
same,"Plant response rating, Blackgrass",[5]; [26],0
same,"Plant response rating, Blackgrass",[5]; [27],0
same,"Plant response rating, Blackgrass",[5]; [28],0
same,"Plant response rating, Bromegrass, Downy",[6]; [21],50
same,"Plant response rating, Bromegrass, Downy",[6]; [23],5
same,"Plant response rating, Bromegrass, Downy",[6]; [24],55
same,"Plant response rating, Bromegrass, Downy",[6]; [25],60
same,"Plant response rating, Bromegrass, Downy",[6]; [20],70
same,"Plant response rating, Bromegrass, Downy",[6]; [26],0
same,"Plant response rating, Bromegrass, Downy",[6]; [27],5
same,"Plant response rating, Bromegrass, Downy",[6]; [28],5
same,"Plant response rating, Goosegrass",[7]; [21],75
same,"Plant response rating, Goosegrass",[7]; [23],100
same,"Plant response rating, Goosegrass",[7]; [24],80
same,"Plant response rating, Goosegrass",[7]; [25],85
same,"Plant response rating, Goosegrass",[7]; [20],85
same,"Plant response rating, Goosegrass",[7]; [26],98
same,"Plant response rating, Goosegrass",[7]; [27],100
same,"Plant response rating, Goosegrass",[7]; [28],100
same,"Plant response rating, Crabgrass, Large",[8]; [21],85
same,"Plant response rating, Crabgrass, Large",[8]; [23],100
same,"Plant response rating, Crabgrass, Large",[8]; [24],90
same,"Plant response rating, Crabgrass, Large",[8]; [25],90
same,"Plant response rating, Crabgrass, Large",[8]; [20],98
same,"Plant response rating, Crabgrass, Large",[8]; [26],60
same,"Plant response rating, Crabgrass, Large",[8]; [27],98
same,"Plant response rating, Crabgrass, Large",[8]; [28],100
same,"Plant response rating, Morningglory",[9]; [21],10
same,"Plant response rating, Morningglory",[9]; [23],55
same,"Plant response rating, Morningglory",[9]; [24],45
same,"Plant response rating, Morningglory",[9]; [25],75
same,"Plant response rating, Morningglory",[9]; [20],85
same,"Plant response rating, Morningglory",[9]; [26],0
same,"Plant response rating, Morningglory",[9]; [27],0
same,"Plant response rating, Morningglory",[9]; [28],45
same,"Plant response rating, Velvetleaf",[10]; [21],95
same,"Plant response rating, Velvetleaf",[10]; [23],100
same,"Plant response rating, Velvetleaf",[10]; [24],98
same,"Plant response rating, Velvetleaf",[10]; [25],98
same,"Plant response rating, Velvetleaf",[10]; [20],100
same,"Plant response rating, Velvetleaf",[10]; [26],80
same,"Plant response rating, Velvetleaf",[10]; [27],98
same,"Plant response rating, Velvetleaf",[10]; [28],98
same,"Plant response rating, Wheat",[11]; [21],15
same,"Plant response rating, Wheat",[11]; [23],0
same,"Plant response rating, Wheat",[11]; [24],25
same,"Plant response rating, Wheat",[11]; [25],35
same,"Plant response rating, Wheat",[11]; [20],35
same,"Plant response rating, Wheat",[11]; [26],0
same,"Plant response rating, Wheat",[11]; [27],0
same,"Plant response rating, Wheat",[11]; [28],0
same,"Plant response rating, Cupgrass, Woolly",[12]; [21],70
same,"Plant response rating, Cupgrass, Woolly",[12]; [23],80
same,"Plant response rating, Cupgrass, Woolly",[12]; [24],75
same,"Plant response rating, Cupgrass, Woolly",[12]; [25],85
same,"Plant response rating, Cupgrass, Woolly",[12]; [20],95
same,"Plant response rating, Cupgrass, Woolly",[12]; [26],0
same,"Plant response rating, Cupgrass, Woolly",[12]; [27],10
same,"Plant response rating, Cupgrass, Woolly",[12]; [28],65
same,"Plant response rating, Nutsedge, Yellow",[13]; [21],20
same,"Plant response rating, Nutsedge, Yellow",[13]; [23],90
same,"Plant response rating, Nutsedge, Yellow",[13]; [24],25
same,"Plant response rating, Nutsedge, Yellow",[13]; [25],45
same,"Plant response rating, Nutsedge, Yellow",[13]; [20],65
same,"Plant response rating, Nutsedge, Yellow",[13]; [26],0
same,"Plant response rating, Nutsedge, Yellow",[13]; [27],25
same,"Plant response rating, Nutsedge, Yellow",[13]; [28],80
